# From patent publication US12606548B2, “Fungicidal oxadiazoles” (FMC CORPORATION, priority 2019, dated 2026)
# Legend:
# [1] = tested on: Phakopsora pachyrhizi; experiment: Test A: test suspension sprayed on soybean seedlings, inoculated next day with Phakopsora pachyrhizi (Asian soybean rust), visual disease rating; format: in vivo; conditions: relative to the controls
# From the text: General protocol for preparing test suspensions for Tests A-C: the test compounds were first dissolved in acetone in an amount equal to 3% of the final volume and then suspended at the desired concentration (in ppm) in acetone and purified water (50/50 mix by volume) containing 250 ppm of the surfactant PEG400 (polyhydric alcohol esters). The resulting test suspensions were then used in Tests A-C. The test suspension was sprayed to the point of run-off on soybean seedlings. The following day the seedlings were inoculated with a spore suspension of Phakopsora pachyrhizi (the causal agent of Asian soybean rust) and incubated in a saturated atmosphere at 22° C., for 24 h and then moved to a growth chamber at 22° C., for 8 days, after which time visual disease ratings were made. […] A dash (-) indicates the compound was not tested. The test suspensions were sprayed at the concentration listed in the column “Rate in ppm”, unless otherwise indicated.
# [2] = tested on: Puccinia recondita f. sp. tritici; experiment: Test C: test suspension sprayed on wheat seedlings, inoculated next day with Puccinia recondita f. sp. tritici (wheat leaf rust), visual disease rating; format: in vivo; conditions: relative to the controls
# From the text: General protocol for preparing test suspensions for Tests A-C: the test compounds were first dissolved in acetone in an amount equal to 3% of the final volume and then suspended at the desired concentration (in ppm) in acetone and purified water (50/50 mix by volume) containing 250 ppm of the surfactant PEG400 (polyhydric alcohol esters). The resulting test suspensions were then used in Tests A-C. The test suspension was sprayed to the point of run-off on wheat seedlings. The following day the seedlings were inoculated with a spore suspension of Puccinia recondita f. sp. tritici; (the causal agent of wheat leaf rust) and incubated in a saturated atmosphere at 20° C., for 24 h, and then moved to a growth chamber at 20° C., for 6 days, after which time visual disease ratings were made. […] A dash (-) indicates the compound was not tested. The test suspensions were sprayed at the concentration listed in the column “Rate in ppm”, unless otherwise indicated.
Compound,Test A rating (% disease control) ([1]; Rate 10 ppm test suspension),Test C rating (% disease control) ([2]; Rate 10 ppm test suspension),Test A rating (% disease control) ([1]; Rate 50 ppm test suspension),Test C rating (% disease control) ([2]; Rate 50 ppm test suspension)
CCONC(=O)c1cnn(Cc2ccc(-c3noc(C(F)(F)F)n3)cc2)c1 [compound 380],100%,100%,–,–
Nc1cnn(Cc2ccc(-c3noc(C(F)(F)F)n3)cc2)c1 [compound 381],0%,0%,–,–
O=[N+]([O-])c1cnn(Cc2ccc(-c3noc(C(F)(F)F)n3)cc2)c1 [compound 382],100%,96%,–,–
FC(F)(F)c1nc(-c2ccc(Cn3cc(I)cn3)cc2)no1 [compound 383],71%,68%,–,–
CCON=Cc1cnn(Cc2ccc(-c3noc(C(F)(F)F)n3)cc2)c1 [compound 384],100%,100%,–,–
CCCON=Cc1cnn(Cc2ccc(-c3noc(C(F)(F)F)n3)cc2)c1 [compound 385],100%,100%,–,–
C=CCON=Cc1cnn(Cc2ccc(-c3noc(C(F)(F)F)n3)cc2)c1 [compound 386],100%,100%,–,–
C#CCON=Cc1cnn(Cc2ccc(-c3noc(C(F)(F)F)n3)cc2)c1 [compound 387],100%,99%,–,–
CC(C)ON=Cc1cnn(Cc2ccc(-c3noc(C(F)(F)F)n3)cc2)c1 [compound 388],100%,100%,–,–
CC(=O)NN=Cc1cnn(Cc2ccc(-c3noc(C(F)(F)F)n3)cc2)c1 [compound 389],100%,100%,–,–
CS(=O)(=O)CCOC(=O)c1cnn(Cc2ccc(-c3noc(C(F)(F)F)n3)cc2)c1 [compound 390],100%,100%,–,–
CCOC(CC(=O)c1cnn(Cc2ccc(-c3noc(C(F)(F)F)n3)cc2)c1)OCC [compound 391],100%,100%,–,–
CN(C)C(=O)c1cnn(CCCc2ccc(-c3noc(C(F)(F)F)n3)cc2)c1 [compound 406],100%,93%,–,–
Nc1ncnc2c1cnn2Cc1ccc(-c2noc(C(F)(F)F)n2)cc1 [compound 407],100%,100%,–,–
FC(F)(F)c1nc(-c2ccc(Cn3ncc4ncccc43)cc2)no1 [compound 408],100%,100%,–,–
FC(F)(F)c1nc(-c2ccc(Cn3cc4ncccc4n3)cc2)no1 [compound 409],100%,100%,–,–
CCCCOC(=O)c1cnn(Cc2ccc(-c3noc(C(F)(F)F)n3)cc2)c1 [compound 410],100%,100%,–,–
O=C(OCC1CC1)c1cnn(Cc2ccc(-c3noc(C(F)(F)F)n3)cc2)c1 [compound 411],100%,100%,–,–
O=C(OCc1ccccc1)c1cnn(Cc2ccc(-c3noc(C(F)(F)F)n3)cc2)c1 [compound 412],100%,100%,–,–
FC(F)(F)c1nc(-c2ccc(Cn3ncc4cc(Br)cnc43)cc2)no1 [compound 413],100%,68%,–,–
FC(F)(F)c1nc(-c2ccc(Cn3cc4cc(Br)cnc4n3)cc2)no1 [compound 414],100%,100%,–,–

Compound,Test A rating (% disease control) ([1]; Rate 10 ppm test suspension),Test C rating (% disease control) ([2]; Rate 10 ppm test suspension),Test A rating (% disease control) ([1]; Rate 50 ppm test suspension),Test C rating (% disease control) ([2]; Rate 50 ppm test suspension)
CNC(=O)c1cnn(CCCc2ccc(-c3noc(C(F)(F)F)n3)cc2)c1 [compound 415],100%,96%,–,–
CCCOC(=O)c1cnn(Cc2ccc3cc(-c4noc(C(F)(F)F)n4)ccc3c2)c1 [compound 416],–,–,77%,0%
N#Cc1cccn(Cc2ccc(-c3noc(C(F)(F)F)n3)cc2)c1=O [compound 417],100%,100%,–,–
CCOC(=O)c1cncn(Cc2ccc(-c3noc(C(F)(F)F)n3)cc2)c1=O [compound 418],100%,99%,–,–
CCOC(=O)c1cn(Cc2ccc(-c3noc(C(F)(F)F)n3)cc2)c(=O)cn1 [compound 419],96%,99%,–,–
COC(=O)c1ccc(=O)n(Cc2ccc(-c3noc(C(F)(F)F)n3)cc2)c1 [compound 420],100%,100%,–,–
COc1ccn(Cc2ccc(-c3noc(C(F)(F)F)n3)cc2)c(=O)c1 [compound 421],100%,100%,–,–
COC(=O)c1cccn(Cc2ccc(-c3noc(C(F)(F)F)n3)cc2)c1=O [compound 422],90%,93%,–,–
COC(=O)c1nccn(Cc2ccc(-c3noc(C(F)(F)F)n3)cc2)c1=O [compound 423],86%,80%,–,–
CCOC(=O)c1cnn(Cc2ccc(-c3noc(C(F)(F)F)n3)cn2)c1 [compound 424],100%,96%,–,–
COC(=O)c1cnn(CCCc2ccc(-c3noc(C(F)(F)F)n3)cc2)c1 [compound 427],–,–,100%,67%
CCOC(=O)c1cnn(CCCc2ccc(-c3noc(C(F)(F)F)n3)cc2)c1 [compound 428],–,–,100%,100%
CCOC(=O)C1(Cc2ccc(-c3noc(C(F)(F)F)n3)cc2)CCNC1=O (stereo not drawn) [compound 431],–,–,99%,98%
CCOC(=O)C1(Cc2ccc(-c3noc(C(F)(F)F)n3)cc2)CCCNC1=O (stereo not drawn) [compound 432],–,–,100%,92%
FC(F)(F)c1nc(-c2ccc(Cn3cc4cnc(Cl)nc4n3)cc2)no1 [compound 433],100%,99%,–,–
CSCC(=O)COC(=O)c1cnn(Cc2ccc(-c3noc(C(F)(F)F)n3)cc2)c1 [compound 434],100%,98%,–,–
N#Cc1cnn(CCCc2ccc(-c3noc(C(F)(F)F)n3)cc2)c1 [compound 435],100%,74%,–,–
COC(=O)c1cnn(CCCc2ccc(-c3noc(C(F)(F)F)n3)cc2)c1 [compound 436],100%,74%,–,–
CCOC(=O)c1cnn(CCCc2ccc(-c3noc(C(F)(F)F)n3)cc2)c1 [compound 437],100%,86%,–,–
CCCOC(=O)c1cnn(Cc2cc(OC)c(-c3noc(C(F)(F)F)n3)s2)c1 [compound 439],0%,0%,–,–
C=CCOC(=O)c1cnn(Cc2cc(OC)c(-c3noc(C(F)(F)F)n3)s2)c1 [compound 440],0%,0%,–,–
